# Counter-ions that a name gives are not always drawn.
# What was measured:
# [1] = tested on: LPS-induced pulmonary neutrophilia in rats; test: In Vivo Assay 1: LPS induced pulmonary neutrophilia in rats, intratracheal administration; set-up: species or system rat; conditions: rats; for mean inhibition of LPS-induced pulmonary neutrophilia: i.t. aqueous solution, about 2 hours prior to LPS; for estimated ED50 for inhibition of LPS-induced pulmonary neutrophilia: i.t., micronised, aqueous solution in 0.2% Tween 80 in PBS, about 2 hours prior to LPS challenge
# Source text: This assay is an animal model of acute inflammation in the lung—specifically neutrophilia induced by lipopolysaccharide (LPS)—and allows the study of putative inhibition of such neutrophilia (anti-inflammatory effect) by an intratracheally (i.t.) administered PDE4 inhibitor (“drug”). The PDE4 inhibitors are suitably in dry powder, aqueous solution or aqueous suspension form. I.t. administration is one model of inhaled administration, allowing topical delivery to the lung.
# Animals: Male CD (Sprague Dawley Derived) rats supplied by Charles River, United Kingdom are housed in groups of 5 rats per cage, acclimatised after delivery for at least 7 days with bedding/nesting material regularly changed, fed on SDS diet R1 pelleted food given ad lib, and supplied with daily-changed pasteurised animal grade drinking water.
# Device for dry powder administration: For these studies, a Penn Century DP-4 dry powder intratracheal (i.t.) delivery device (insufflator) is used for administration of a dry powder blend of vehicle (inhalation grade lactose) and the PDE4 inhibitor compound or salt of the invention (“drug”). Each device is numbered and the sample loading chamber is unscrewed from the main device and weighed. The i.t. delivery needle is also weighed. The drug+lactose blend or inhalation grade lactose (vehicle control) is then added to the sample chamber and this is then re-weighed. The sample chamber is fitted back on to the main device to prevent any drug being lost. This procedure is repeated for all of the Penn century devices to be used in the study (one separate device for each animal). After dosing to the animals, the sample chambers and needles are re-weighed in order to determine the amount of sample that was expelled from the device.
# Device for aqueous solution administration: A blunt dosing needle, whose forward end is slightly angled to the needle axis, is used, with a flexible plastic portex canula inserted into the needle. The portex cannula is inserted into the lumen of the blunt stainless steel dosing needle and this is carefully inserted into the back of the animal's throat and into the trachea via the larynx. A known volume (200 microlitres) of the vehicle (0.2% Tween 80™ in saline) or of the solution (or suspension) drug composition is administered into the trachea using a plastic syringe that is attached to the portex cannula and dosing needle. A new internal cannula is used for each different drug group. After dosing, the needle is removed from the trachea and the animals are removed from the table and continually observed until they recover from the effects of anaesthesia. The animals are then returned to the holding cages and given free access to food and water, and are observed and any unusual behavioural changes noted. (Aqueous suspensions can be handled generally similarly.)
# Drugs and Materials: Lipopolysaccharide (LPS) (Serotype:0127:B8, e.g. from Sigma, UK; e.g. L3129 prepared by phenol extraction) is dissolved in phosphate-buffered saline (PBS).
# For dry powder, aqueous solution or aqueous suspension administration, PDE4 inhibitors are preferably used in size-reduced (e.g. micronised) form, for example according to the Micronisation Example(s) disclosed herein.
# For dry powder administration of the drug, the PDE4 inhibitor compound or salt of the invention (drug) is administered as a dry powder blended with inhalation-grade (respiratory-grade) lactose, i.e. as a dry powder composition. The target quantity of dry powder composition administered i.t. to each animal is 2 mg. This remains constant throughout the studies. To achieve different doses, blends of the drug dry powder and lactose, containing different concentrations of the PDE4 inhibitor compound or salt of the invention (drug), are prepared. […]
# PDE5 (human recombinant) = PDE5 (human recombinant) (Homo sapiens, UniProt O76074); test: Inhibition of PDE5 activity (FP or SPA assays); type: biochemical; conditions: selectivity PDE4B over PDE5
# Source text: Human recombinant PDE5 is disclosed in K. Loughney et al., “Isolation and characterisation of cDNAs encoding PDE5A, a human cGMP-binding, cGMP-specific 3′,5′-cyclic nucleotide phosphodiesterase”, Gene, 1998, 216, 139-147.
# The ability of compounds to inhibit catalytic activity at PDE4B or 4D (human recombinant), PDE3 (from bovine aorta), PDE5 (human recombinant) or PDE6 (from bovine retina) can optionally be determined by Scintillation Proximity Assay (SPA) in a 96-well format.
# Test compounds (as a solution in DMSO, suitably about 2 microlitre (ul) volume of DMSO solution) are preincubated at ambient temperature (room temperature, e.g. 19-23° C.) in Wallac Isoplates (code 1450-514) with PDE enzyme in 50 mM Tris-HCl buffer pH 7.5, 8.3 mM MgCl2, 1.7 mM EGTA, 0.05% (w/v) bovine serum albumin for 10-30 minutes (usually 30 minutes). The enzyme concentration is adjusted so that no more than 20% hydrolysis of the substrate defined below occurs in control wells without compound, during the incubation. […] Bound radioactive product is measured using a WALLAC TRILUX 1450 Microbeta scintillation counter. […] Curves are analysed using ActivityBase and XLfit (ID Business Solutions Limited, 2 Ocean Court, Surrey Research Park, Guildford, Surrey GU2 7QB, United Kingdom) Results are expressed as pIC50 values. […]
SMILES,"mean inhibition of LPS-induced pulmonary neutrophilia ([1]; about 10 micrograms/kg, dihydrochloride)","mean inhibition of LPS-induced pulmonary neutrophilia ([1]; about 30 micrograms/kg, dihydrochloride)","mean inhibition of LPS-induced pulmonary neutrophilia ([1]; about 100 micrograms/kg, dihydrochloride)",mean inhibition of LPS-induced pulmonary neutrophilia ([1]; about 300 micrograms/kg),estimated ED50 for inhibition of LPS-induced pulmonary neutrophilia ([1]; dihydrochloride),PDE4B inhibition compared with PDE5 inhibition (pIC50 values) (PDE5 (human recombinant)),mean inhibition of LPS-induced pulmonary neutrophilia ([1]; about 10 micrograms/kg),mean inhibition of LPS-induced pulmonary neutrophilia ([1]; about 30 micrograms/kg),mean inhibition of LPS-induced pulmonary neutrophilia ([1]; about 100 micrograms/kg),estimated ED50 for inhibition of LPS-induced pulmonary neutrophilia [1]
"CCc1nc2c(cnn2CC)c(NC2CCOCC2)c1CNC(=O)c1ccc(NC(=O)CCCCCCCN(C)CCO)cc1 [Example 1A1, N-{[1,6-Diethyl-4-(tetrahydro-2H-pyran-4-ylamino)-1H-pyrazolo[3,4-b]pyridin-5-yl]methyl}-4-({8-[(2-hydroxyethyl)(methyl)amino]octanoyl}amino)benzamide dihydrochloride]",about 33%,about 56%,about 76%,about 74%,approximately 12.3 micrograms/kg body weight,–,–,–,–,–
"CCc1nc2c(cnn2CC)c(NC2CCOCC2)c1CNC(=O)c1ccc(NC(=O)CCCCCCCN(C)CCO)cc1 [Example 1B, N-{[1,6-diethyl-4-(tetrahydro-2H-pyran-4-ylamino)-1H-pyrazolo[3,4-b]pyridin-5-yl]methyl}-4-({8-[(2-hydroxyethyl)(methyl)amino]octanoyl}amino)benzamide]",–,–,–,–,–,"inhibit PDE4B more strongly than they inhibit PDE3, PDE5 and PDE6",about 29%,about 75%,about 59%,approximately 10.1 micrograms/kg body weight
